Literature values in publication PMC10360060, “Electroosmotic Perfusion, External Microdialysis: Simulation and Experiment” (ACS Chemical Neuroscience, 2023).
Where two headings read alike, the source gives them in different places.

Assays:
[1] = test system: insulin regulated aminopeptidase (IRAP); details: perfusion of inhibitor in rat neocortex in vivo, online capillary LC-MS2
From the text: Following our discovery that brain tissue has a significant ζ-potential,[36] we learned how to use this property of brain tissue to infuse solutes into brain and organotypic hippocampal slice cultures (OHSCs) using controlled electrical current[37],[38] and to infuse substrates of known ectoenzymes and determine information about these enzymes in OHSCs[39]−[43] and in vivo.[44] For the in vivo work, direct laser writing by two-photon polymerization was used to manufacture a device (Supporting Information, section S3). A pointed, narrow capillary adjacent to a microdialysis probe was the source ...

[2] = saline solution, parameter used in simulations, ref Li and Carr, Scheibel, Häckel et al.[65]−[67]
From the text: Table 1 List of Parameters Used in Simulations | column: magnitude

[3] = 37 °C (body temperature, tissue)

inhibition of YGGFL hydrolysis [1]	Compound	Diffusion coefficients ([2]; 22 °C (lab temperature))	Diffusion coefficients [2, 3]
dose-dependent inhibition	CCOC(=O)C1=C(NC(C)=O)Oc2cc(O)ccc2C1c1cccnc1 (centres unmarked) [HFI-419]	–	–
–	GGFL [hydrolysis product of YGGFL]	5.0 × 10^–10 m^2/s	6.5 × 10^–10 m^2/s
–	YGGFL [leucine enkephalin, natural neuropeptide substrate infused through tissue]	4.2 × 10^–10 m^2/s	5.5 × 10^–10 m^2/s
